The values that follow come from patent publication US20260000676A1, “CHROMAN DERIVATIVES AS ESTROGEN RECEPTOR DEGRADERS” (THE REGENTS OF THE UNIVERSITY OF MICHIGAN, priority 2022, published 2026).

Molecules are shown by their SMILES.

The target of one assay is CRBN/DDB1 (Homo sapiens (Human), UniProt Q96SW2). Briefly: HTRF binding assay to CRBN/DDB1. Conditions: read-out: CRBN HTRF IC50. As to the method:
The binding potency was determined using HTRF assay technology (Perkin Elmer). Compounds were serially diluted in DMSO and 0.2 μL volume was transferred to white 384-well plate.

For another assay, the target named is ERα_LBD(GST) (Homo sapiens (Human), UniProt P03372). Briefly: LanthaScreen TR-FRET ERα competitive binding assay. The settings on record: read-out: ERα HTRF IC50. As to the method: • 1. ERα_LBD(GST) protein: 4 nM • 2. Tb Anti-GST: 2 nM • 3. Fluormone ES2 Green tracer: 3 nM • 4. Incubation time: 60 min • 5. DMSO: 1% • 6. Assay buffer: Adding 1M DTT to Nuclear receptor Buffer K for final 5 mM DTT. • 7. ZPE: 1% DMSO • 8. HPE: 1 μM ARV_471 • 9. LanthaScreen® TR-FRET ERα Competitive Binding Assay (ThermoFisher, #A15887)
• 1) Cherry pick 2 μL 10 mM compound stock to column 1 of a 384 intermediate plate • 2) Add 18 μL DMSO to column 1 to dilute compound to 1 mM. • 3) Transfer 10 μL 1 mM compound to column 1 of a LDV plate. • 2) Add 6 μl DMSO to column 2-10 of the LDV plate. • 3) Compounds undergo 3-fold serial dilution (3 μL+6 μL) in DMSO. • 4) Transfer 120 nL compound solution to assay plate. • ZPE: 120 nL 100% DMSO
Prepare complete nuclear receptor buffer K by adding 1 M DTT to nuclear receptor buffer K for a final concentration of 5 mM DTT. Complete nuclear receptor buffer K must be prepared fresh daily. Prepare 2× protein solution using complete nuclear receptor buffer K containing 8 nM ERα_LBD(GST) and 4 nM Tb Anti-GST. Then, prepare 2× Fluormone ES2 Green tracer (6 nM) using complete nuclear receptor buffer K. Add 6 μL 2× Fluormone ES2 green tracer into a compound plate (PerkinElmer 6008289) by dragonfly with one-tips-addition. Subsequently, add 6 μL 2× protein solution into the plate. Briefly and gently mix the 384-well plate on a plate shaker and incubate at room temperature protected from light for 60 min. The plate is sealed with a cover to minimize evaporation. Read the plate at wavelengths of 520 nm and 495 nm. Calculate the TR-FRET ratio by dividing the emission signal at 520 nm by the emission signal at 495 nm. Generate a binding curve by plotting the emission ratio vs. the log [ligand]. To determine the IC50 value, fit the data using XL-fit for a sigmoidal dose-response.
In general terms: In TR-FRET formats the signal depends on donor and acceptor labels being close together.

For assay [1], the target named is T1, ER (Homo sapiens (Human), UniProt P03372). The assay can be described thus: In-cell western (ICW) ER degradation assay in MCF-7 cells. Type of assay: cell-based. The settings on record: MCF7, 16 hrs; for DC50: ER degradation; for MCF7 Dmax %: maximal ER degradation; for Dmax: MCF7, maximal ER degradation.
For assay [2], the target named is T1, ER. Briefly: In-cell western (ICW) ER degradation assay in T47D cells. The class given is cell-based. The settings on record: 16 hrs; for DC50: ER degradation; for T47D Dmax % / Dmax: maximal ER degradation.

Sequence of CRBN/DDB1 (Q96SW2 whole entry): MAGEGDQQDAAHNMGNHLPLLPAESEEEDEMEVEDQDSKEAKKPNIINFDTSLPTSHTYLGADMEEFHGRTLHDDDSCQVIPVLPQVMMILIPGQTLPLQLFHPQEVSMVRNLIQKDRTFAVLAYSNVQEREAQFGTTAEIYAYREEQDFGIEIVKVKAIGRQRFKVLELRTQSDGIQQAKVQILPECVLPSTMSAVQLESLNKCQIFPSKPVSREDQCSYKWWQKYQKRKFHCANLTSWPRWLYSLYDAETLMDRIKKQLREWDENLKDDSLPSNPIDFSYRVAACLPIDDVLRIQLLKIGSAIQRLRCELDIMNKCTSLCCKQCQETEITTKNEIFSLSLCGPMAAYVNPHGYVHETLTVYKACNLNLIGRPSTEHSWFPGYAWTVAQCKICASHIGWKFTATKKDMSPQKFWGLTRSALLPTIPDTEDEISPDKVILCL
Sequence of CRBN/DDB1 (Q16531 whole entry partner): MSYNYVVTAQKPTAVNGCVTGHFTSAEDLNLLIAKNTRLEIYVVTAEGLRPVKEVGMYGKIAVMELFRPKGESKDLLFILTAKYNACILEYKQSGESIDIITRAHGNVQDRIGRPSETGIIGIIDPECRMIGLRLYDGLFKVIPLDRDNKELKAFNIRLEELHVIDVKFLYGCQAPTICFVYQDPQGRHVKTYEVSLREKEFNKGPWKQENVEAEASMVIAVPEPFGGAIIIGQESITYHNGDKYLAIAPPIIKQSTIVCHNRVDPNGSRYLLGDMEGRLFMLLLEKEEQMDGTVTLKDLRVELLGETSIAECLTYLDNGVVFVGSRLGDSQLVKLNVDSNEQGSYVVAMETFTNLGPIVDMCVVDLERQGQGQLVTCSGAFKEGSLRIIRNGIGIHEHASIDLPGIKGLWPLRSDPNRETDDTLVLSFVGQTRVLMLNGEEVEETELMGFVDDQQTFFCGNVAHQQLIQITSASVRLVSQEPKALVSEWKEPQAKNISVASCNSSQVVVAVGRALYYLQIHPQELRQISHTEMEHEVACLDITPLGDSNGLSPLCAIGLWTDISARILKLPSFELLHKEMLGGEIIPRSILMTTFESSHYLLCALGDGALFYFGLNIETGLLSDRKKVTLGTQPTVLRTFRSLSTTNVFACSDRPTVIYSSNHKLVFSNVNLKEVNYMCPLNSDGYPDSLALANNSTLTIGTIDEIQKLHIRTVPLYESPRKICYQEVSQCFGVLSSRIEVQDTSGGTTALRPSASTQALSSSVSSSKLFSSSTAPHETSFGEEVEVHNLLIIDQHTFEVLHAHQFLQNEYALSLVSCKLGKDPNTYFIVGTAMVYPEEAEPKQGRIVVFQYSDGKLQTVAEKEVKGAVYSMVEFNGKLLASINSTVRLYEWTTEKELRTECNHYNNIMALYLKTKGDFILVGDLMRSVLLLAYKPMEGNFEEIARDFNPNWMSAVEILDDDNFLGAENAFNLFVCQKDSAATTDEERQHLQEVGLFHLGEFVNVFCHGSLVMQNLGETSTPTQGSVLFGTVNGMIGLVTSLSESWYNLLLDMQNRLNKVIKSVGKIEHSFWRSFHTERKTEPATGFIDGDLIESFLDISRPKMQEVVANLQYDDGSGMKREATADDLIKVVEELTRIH
T1 sequence (P03372 whole entry): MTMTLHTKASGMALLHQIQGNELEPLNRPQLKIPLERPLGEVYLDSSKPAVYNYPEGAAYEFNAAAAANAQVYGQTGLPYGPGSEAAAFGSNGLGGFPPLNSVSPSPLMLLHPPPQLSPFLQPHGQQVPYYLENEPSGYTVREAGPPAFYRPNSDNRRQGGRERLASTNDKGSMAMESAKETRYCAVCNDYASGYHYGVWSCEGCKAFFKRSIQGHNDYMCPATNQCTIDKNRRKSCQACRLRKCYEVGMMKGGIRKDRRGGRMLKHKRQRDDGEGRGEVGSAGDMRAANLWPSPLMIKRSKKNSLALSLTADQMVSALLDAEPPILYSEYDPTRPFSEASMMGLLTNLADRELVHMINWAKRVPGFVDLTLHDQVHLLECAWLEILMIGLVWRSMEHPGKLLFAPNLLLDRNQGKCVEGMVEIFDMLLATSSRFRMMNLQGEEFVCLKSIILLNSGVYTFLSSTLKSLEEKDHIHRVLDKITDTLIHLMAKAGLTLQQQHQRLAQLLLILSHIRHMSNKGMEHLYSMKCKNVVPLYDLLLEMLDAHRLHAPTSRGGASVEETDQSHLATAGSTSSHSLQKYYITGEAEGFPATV
Sequence of ERα_LBD(GST) (P03372 311-547): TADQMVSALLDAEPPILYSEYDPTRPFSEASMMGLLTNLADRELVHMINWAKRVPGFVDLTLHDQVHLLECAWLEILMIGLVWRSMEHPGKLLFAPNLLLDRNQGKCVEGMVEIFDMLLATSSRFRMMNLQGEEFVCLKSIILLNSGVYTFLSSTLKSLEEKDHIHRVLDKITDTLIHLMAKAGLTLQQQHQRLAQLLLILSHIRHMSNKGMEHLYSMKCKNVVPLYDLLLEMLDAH

As usually defined, the IC50 is the concentration needed to halve the response being measured. A word on the DC50: it is the concentration giving 50% degradation. Turning to `COc1cc(N2CCC(CN3CCN(c4ccc(C(=O)NC5CCC(=O)NC5=O)nc4)CC3)CC2)c(F)cc1[C@H]1c2ccc(O)cc2OC[C@H]1c1ccccc1` (stereo partly drawn) [Compound A110, N-(2,6-dioxopiperidin-3-yl)-5-(4-((1-(2-fluoro-4-((3R,4R)-7-hydroxy-3-phenylchroman-4-yl)-5-methoxyphenyl)piperidin-4-yl)methyl)piperazin-1-yl)picolinamide], on CRBN/DDB1, the IC50 was greater than 5000 nM. In addition, the IC50 on ERα_LBD(GST) is less than 5 nM. Besides, at ER [1], the DC50 is less than 1 nM; the “MCF7 Dmax %” value is “B (“B”: >50% and <75%)”. Also, at ER [2], the 50% degradation concentration (DC50) is less than 1 nM; the “T47D Dmax %” value was “B (“B”: >50% and <75%)”.
By Dmax is commonly meant the greatest extent of degradation seen. Take `O=C1CC[C@@H](NC(=O)c2ccc(N3CCN(CC4COC5(CCN(c6ccc([C@H]7c8ccc(O)cc8OC[C@H]7c7ccccc7)cc6)CC5)C4)CC3)cn2)C(=O)N1` (single isomer, unassigned) [Compound A145]: the IC50 at CRBN/DDB1 is greater than 5000 nM; on ERα_LBD(GST) it was less than 5 nM. Moreover, the DC50 on ER [1] is 1 to 10 nM; on ER [2] it was less than 1 nM. For the same compound, the Dmax at ER [1] and at ER [2] was 50 to 75% each time.
With `O=C1CC[C@H](NC(=O)c2ccc3c(n2)OC[C@H]2CN(C[C@H]4COC5(CCN(c6ccc([C@@H]7c8ccc(O)cc8OC[C@@H]7c7ccccc7)cc6)CC5)C4)CCN32)C(=O)N1` [Compound A147, (R)-N-((S)-2,6-dioxopiperidin-3-yl)-3-(((S)-8-(4-((3S,4R)-7-hydroxy-3-phenylchroman-4-yl)phenyl)-1-oxa-8-azaspiro[4.5]decan-3-yl)methyl)-1,2,3,4,4a,5-hexahydropyrazino[1,2-d]pyrido[2,3-b][1,4]oxazine-8-carboxamide], the IC50 was 500 to 5000 nM at CRBN/DDB1 and less than 5 nM on ERα_LBD(GST). The DC50 at ER [1] and at ER [2] was less than 1 nM throughout. In addition, the Dmax on ER [1] and at ER [2] was 50 to 75% throughout.
For `O=C1CCC(N2Cc3c(ccc4c3OC[C@H]3CN(CC5CCN(c6ncc([C@H]7c8ccc(O)cc8OC[C@H]7c7ccccc7)cn6)CC5)CCN43)C2=O)C(=O)N1` (single isomer, unassigned) [Compound A35], the IC50 at CRBN/DDB1 was 50 to 500 nM; at ERα_LBD(GST) it was less than 5 nM. Moreover, the DC50 on ER [1] and at ER [2] was 1 to 10 nM each time. The figures for the Dmax at ER [1] and at ER [2] were 25 to 50% and 50 to 75%, respectively.
In the case of `O=C1CCC(N2Cc3cc4c(cc3C2=O)CN(C(=O)C2CCN(C3CCN(c5ccc([C@@H]6c7ccc(O)cc7OC[C@@H]6c6ccccc6)cc5)CC3)CC2)C4)C(=O)N1` (single isomer, unassigned) [Compound A81], the 50% inhibitory concentration (IC50) was 500 to 5000 nM on CRBN/DDB1 and less than 5 nM at ERα_LBD(GST). Also, the DC50 at ER [1] and on ER [2] was less than 1 nM throughout. The Dmax on ER [1] and on ER [2] was no less than 75% throughout.
In the case of `O=C1CC[C@@H](N2Cc3cc4c(cc3C2=O)CN(C(=O)CN2CCC3(CC2)CCN(c2ccc([C@H]5c6ccc(O)cc6OC[C@H]5c5ccccc5)cc2)CC3)C4)C(=O)N1` (single isomer, unassigned) [Compound A41], the IC50 was 50 to 500 nM at CRBN/DDB1 and no less than 5 nM on ERα_LBD(GST). The values for the half-maximal degradation concentration (DC50) at ER [1] and on ER [2] were 1 to 10 nM and less than 1 nM, respectively. Also, the Dmax on ER [1] was 50 to 75%; on ER [2], no less than 75%.
As to `O=C1CC[C@@H](Nc2ccc(C3CCN(CC4CCC5(CC4)CN(c4ccc([C@H]6c7ccc(O)cc7OC[C@H]6c6ccccc6)cc4)C5)CC3)cc2)C(=O)N1` (single isomer, unassigned) [Compound A140], the figures for the IC50 on CRBN/DDB1 and on ERα_LBD(GST) were 500 to 5000 nM and less than 5 nM, respectively. In addition, the DC50 on ER [1] and at ER [2] was less than 1 nM each time. The Dmax on ER [1] and on ER [2] was 50 to 75% each time.
In the case of `O=C1CCC(N2Cc3c(ccc4c3OCC43CCN(CC4COC5(CCN(c6ccc([C@H]7c8ccc(O)cc8OC[C@H]7c7ccccc7)cc6)CC5)C4)CC3)C2=O)C(=O)N1` (stereo partly drawn) [Compound A146, 3-(1′-((8-(4-((3R,4S)-7-hydroxy-3-phenylchroman-4-yl)phenyl)-1-oxa-8-azaspiro[4.5]decan-3-yl)methyl)-6-oxo-6,8-dihydro-2H,7H-spiro[furo[2,3-e]isoindole-3,4′-piperidin]-7-yl)piperidine-2,6-dione], the figures for the IC50 on CRBN/DDB1 and on ERα_LBD(GST) were less than 50 nM and no less than 5 nM, respectively. For the same compound, the DC50 at ER [1] and on ER [2] was 1 to 10 nM in each case. For the same compound, the values for the Dmax on ER [1] and at ER [2] were 50 to 75% and 25 to 50%, respectively.
`COc1cc(N2CCC(CN3CCN4c5ccc6c(c5OC[C@H]4C3)CN(C3CCC(=O)NC3=O)C6=O)CC2)ccc1[C@@H]1c2ccc(O)cc2OC[C@@H]1c1ccccc1` (single isomer, unassigned) [Compound A77]: the figures for the IC50 at CRBN/DDB1 and on ERα_LBD(GST) were 500 to 5000 nM and less than 5 nM, respectively. The DC50 on ER [1] and on ER [2] was less than 1 nM each time. For the same compound, the Dmax on ER [1] and on ER [2] was 50 to 75% in each case.
As for `O=C1CCC(N2Cc3c(ccc4c3OC[C@H]3CN(CC5CCN(c6ccc([C@H]7c8ccc(O)cc8OC[C@H]7c7ccccc7)cn6)CC5)CCN43)C2=O)C(=O)N1` (single isomer, unassigned) [Compound A64], the IC50 on CRBN/DDB1 is 50 to 500 nM; at ERα_LBD(GST) it was less than 5 nM. The DC50 at ER [1] and at ER [2] was 1 to 10 nM throughout. In addition, the Dmax lay within 25 to 50% on ER [1] and 50 to 75% at ER [2].
Take `O=C1CC[C@H](NC(=O)c2ccc3c(n2)OC[C@H]2CN(CC4CCC5(CC4)CN(c4ccc([C@@H]6c7ccc(O)cc7OC[C@@H]6c6ccccc6)cc4)C5)CCN32)C(=O)N1` [Compound A142, (R)-N-((S)-2,6-dioxopiperidin-3-yl)-3-((2-(4-((3S,4R)-7-hydroxy-3-phenylchroman-4-yl)phenyl)-2-azaspiro[3.5]nonan-7-yl)methyl)-1,2,3,4,4a,5-hexahydropyrazino[1,2-d]pyrido[2,3-b][1,4]oxazine-8-carboxamide]: the half-maximal inhibitory concentration (IC50) on CRBN/DDB1 was 500 to 5000 nM; on ERα_LBD(GST) it was less than 5 nM. Further, the DC50 on ER [1] was 1 to 10 nM; at ER [2] it was less than 1 nM. The Dmax on ER [1] and on ER [2] was 50 to 75% in each case.
Consider `O=C1CCC(N2C(=O)c3cc4c(cc3C2=O)CN(CC(=O)N2CCC3(CC2)CN(c2ccc([C@@H]5c6ccc(O)cc6OC[C@@H]5c5ccccc5)cc2)C3)C4)C(=O)N1` (single isomer, unassigned) [Compound A44], for which the 50% inhibitory concentration (IC50) at CRBN/DDB1 was 50 to 500 nM; on ERα_LBD(GST), less than 5 nM. The DC50 on ER [1] is 1 to 10 nM; at ER [2] it was less than 1 nM. Besides, the Dmax at ER [1] and at ER [2] was 50 to 75% each time.
For the compound `O=C1CCC(N2Cc3cc4c(cc3C2=O)CN(C(=O)CN2CCC3(CC2)CN(c2ccc([C@@H]5c6ccc(O)cc6OC[C@@H]5c5ccccc5)cc2)C3)C4)C(=O)N1` (stereo partly drawn) [Compound A49, 3-(6-(2-(2-(4-((3S,4R)-7-hydroxy-3-phenylchroman-4-yl)phenyl)-2,7-diazaspiro[3.5]nonan-7-yl)acetyl)-1-oxo-3,5,6,7-tetrahydropyrrolo[3,4-f]isoindol-2(1H)-yl)piperidine-2,6-dione], the IC50 at CRBN/DDB1 was 50 to 500 nM; at ERα_LBD(GST), less than 5 nM. In addition, the DC50 on ER [1] and at ER [2] was 1 to 10 nM throughout. For the same compound, the Dmax on ER [1] and on ER [2] was 50 to 75% throughout.
Take `COc1cc(N2CCC3(CC2)CC(CN2CCC4(CC2)COc2c4ccc4c2CN(C2CCC(=O)NC2=O)C4=O)C3)c(F)cc1[C@H]1c2ccc(O)cc2OC[C@H]1c1ccccc1` (stereo partly drawn) [Compound A130, 3-(1′-((7-(2-fluoro-4-((3R,4R)-7-hydroxy-3-phenylchroman-4-yl)-5-methoxyphenyl)-7-azaspiro[3.5]nonan-2-yl)methyl)-6-oxo-6,8-dihydro-2H,7H-spiro[furo[2,3-e]isoindole-3,4′-piperidin]-7-yl)piperidine-2,6-dione]: the IC50 on CRBN/DDB1 fell in the range of 50 to 500 nM. At ERα_LBD(GST), the IC50 was less than 5 nM. For the same compound, on ER [1], the DC50 is less than 1 nM and the “MCF7 Dmax %” value is reported as “A (“A”; >=75%)”. Also, on ER [2], the DC50 was less than 1 nM and the “T47D Dmax %” value was “A (“A”; >=75%)”.
